# Reference: US20050070552A1, “Ion channel modulating activity I” (Cardiome Pharma Corp., priority 2003, published 2005)
# Like-named read-outs stand apart in the source and are kept apart here.
# What was measured:
# [1] = format: in vivo, rabbit
# Procedure: Briefly, continuous infusion of COMPOUND A was administered prior to continuous infusion of methoxamine and followed by clofilium. The incidence of TdP (the number of animals in which TdP occurred) was compared to experiments in which COMPOUND A was not infused.
# The following procedure was used: (1) Female NZW rabbits were weighed and anaesthetised initially with 35 mg/kg sodium pentobarbital via ear vein (60 mg/mL) using a sterile 23G 3/4 needle. Additional doses (in increments of 0.2-0.3 mL) were used if required to attain and maintain sufficient anaesthesia as determined by abolishment of eyelid reflex. Care was taken not to over anaesthetize as this could cause respiratory and cardiac arrest. (2) The anaesthetised rabbit was placed on a rabbit restraining board in the supine position and limbs were tied down. (3) The fur in the neck and inguinal region were wetted with water and trimmed down to the skin with scissors to facilitate dissection. Fur was placed in a water-filled beaker to prevent fur from becoming airborne. (4) The left or right femoral artery was cannulated with PE 50 tubing and attached to a pressure transducer to monitor blood pressure. (5) The right and left jugular veins were cannulated using PE-90 tubing for drug delivery via an infusion pump. (6) The left or right femoral vein was cannulated using PE-50 tubing for drug delivery via an infusion pump. (7) ECG leads were attached as follows: the ground lead was inserted subcutaneously into the femoral vein region; one lead was inserted subcutaneously near the apex of the heart and the third lead was placed in the open surgical area near the right jugular vein. (8) Control recordings of ECG and blood pressure were taken for 5 minutes to observe pre-drug effects. Recordings were continued throughout the entire experiment. (9) Arterial K^+ concentration was measured with the hand-held I-STAT blood-gas analyzer prior to infusion of arrhythmogenic agent and at the end of the experiment. […] Infusion was continued throughout the experiment. (11) After a further 5 minutes, methoxamine was administered at 20 μg/kg/min via the femoral vein. Methoxamine infusion was also continued throughout the experiment. (12) 10 minutes following the start of methoxamine infusion, clofilium was infused via a jugular vein. (13) In COMPOUND A-pretreated animals and controls, recording continued for 15 minutes regardless of whether TdP is seen or not. (14) A blood sample was collected when the experimental endpoint was reached, immediately after the infusion pumps were stopped.
# COMPOUND A was applied and examined as described. To analyze the data, the parameters measured are (1) incidence of TdP (2) duration of TdP episodes (3) arterial K^+ concentration, (4) PR, QRS and QTc intervals during normal sinus rhythm (until arrhythmias begin and determination is no longer possible), (5) BP, and (6) HR.
# [2] = biological target: human heart sodium channels (hH1) (Homo sapiens, UniProt Q14524); format: cell-based
# rabbit Purkinje fibers [3] = details: cited from earlier work
# [4] = test system: isolated rabbit Purkinje fibers; details: 100 μM
# hH1 sodium channel = biological target: T1, hH1 sodium channel (Homo sapiens, UniProt Q14524); assay: Inactivated state inhibition of hH1 sodium channel current (prepulse protocol); format: cell-based
# T1 construct: expressed in transfected cells; host or cells: HEK293
# rabbit Purkinje fibers [5] = assay: Action potential duration in rabbit Purkinje fibers; format: cell-based; details: n=10
# Procedure: A midline thoracotomy was performed and the heart was excised as practised by those skilled in the art. […] The heart was perfused with standard bicarbonate buffered Krebs' solution known to those skilled in the art. An electrode was pulled from thin-walled filamented borosilicate glass capillary tubes having a resistance of 10 to 30 megaohms when filled with 3 M KCl. The electrode was attached to headstage mounted on an Axoclamp 2A amplifier (or a similar amplifier known to those skilled in the art). The microelectrode was brought down upon an exposed Purkinje fiber using a micromanipulator and the position was adjusted until the electrode penetrated a single Purkinje cell. The Purkinje fiber network was stimulated using a biphasic stimulation pulse and subsequent action potentials were recorded for analysis.
# [6] = methoxamine plus clofilium, no pretreatment
# [7] = 300 nM dofetilide in the presence of DMSO
# Chain of human heart sodium channels (hH1) (Q14524 whole entry, looked up): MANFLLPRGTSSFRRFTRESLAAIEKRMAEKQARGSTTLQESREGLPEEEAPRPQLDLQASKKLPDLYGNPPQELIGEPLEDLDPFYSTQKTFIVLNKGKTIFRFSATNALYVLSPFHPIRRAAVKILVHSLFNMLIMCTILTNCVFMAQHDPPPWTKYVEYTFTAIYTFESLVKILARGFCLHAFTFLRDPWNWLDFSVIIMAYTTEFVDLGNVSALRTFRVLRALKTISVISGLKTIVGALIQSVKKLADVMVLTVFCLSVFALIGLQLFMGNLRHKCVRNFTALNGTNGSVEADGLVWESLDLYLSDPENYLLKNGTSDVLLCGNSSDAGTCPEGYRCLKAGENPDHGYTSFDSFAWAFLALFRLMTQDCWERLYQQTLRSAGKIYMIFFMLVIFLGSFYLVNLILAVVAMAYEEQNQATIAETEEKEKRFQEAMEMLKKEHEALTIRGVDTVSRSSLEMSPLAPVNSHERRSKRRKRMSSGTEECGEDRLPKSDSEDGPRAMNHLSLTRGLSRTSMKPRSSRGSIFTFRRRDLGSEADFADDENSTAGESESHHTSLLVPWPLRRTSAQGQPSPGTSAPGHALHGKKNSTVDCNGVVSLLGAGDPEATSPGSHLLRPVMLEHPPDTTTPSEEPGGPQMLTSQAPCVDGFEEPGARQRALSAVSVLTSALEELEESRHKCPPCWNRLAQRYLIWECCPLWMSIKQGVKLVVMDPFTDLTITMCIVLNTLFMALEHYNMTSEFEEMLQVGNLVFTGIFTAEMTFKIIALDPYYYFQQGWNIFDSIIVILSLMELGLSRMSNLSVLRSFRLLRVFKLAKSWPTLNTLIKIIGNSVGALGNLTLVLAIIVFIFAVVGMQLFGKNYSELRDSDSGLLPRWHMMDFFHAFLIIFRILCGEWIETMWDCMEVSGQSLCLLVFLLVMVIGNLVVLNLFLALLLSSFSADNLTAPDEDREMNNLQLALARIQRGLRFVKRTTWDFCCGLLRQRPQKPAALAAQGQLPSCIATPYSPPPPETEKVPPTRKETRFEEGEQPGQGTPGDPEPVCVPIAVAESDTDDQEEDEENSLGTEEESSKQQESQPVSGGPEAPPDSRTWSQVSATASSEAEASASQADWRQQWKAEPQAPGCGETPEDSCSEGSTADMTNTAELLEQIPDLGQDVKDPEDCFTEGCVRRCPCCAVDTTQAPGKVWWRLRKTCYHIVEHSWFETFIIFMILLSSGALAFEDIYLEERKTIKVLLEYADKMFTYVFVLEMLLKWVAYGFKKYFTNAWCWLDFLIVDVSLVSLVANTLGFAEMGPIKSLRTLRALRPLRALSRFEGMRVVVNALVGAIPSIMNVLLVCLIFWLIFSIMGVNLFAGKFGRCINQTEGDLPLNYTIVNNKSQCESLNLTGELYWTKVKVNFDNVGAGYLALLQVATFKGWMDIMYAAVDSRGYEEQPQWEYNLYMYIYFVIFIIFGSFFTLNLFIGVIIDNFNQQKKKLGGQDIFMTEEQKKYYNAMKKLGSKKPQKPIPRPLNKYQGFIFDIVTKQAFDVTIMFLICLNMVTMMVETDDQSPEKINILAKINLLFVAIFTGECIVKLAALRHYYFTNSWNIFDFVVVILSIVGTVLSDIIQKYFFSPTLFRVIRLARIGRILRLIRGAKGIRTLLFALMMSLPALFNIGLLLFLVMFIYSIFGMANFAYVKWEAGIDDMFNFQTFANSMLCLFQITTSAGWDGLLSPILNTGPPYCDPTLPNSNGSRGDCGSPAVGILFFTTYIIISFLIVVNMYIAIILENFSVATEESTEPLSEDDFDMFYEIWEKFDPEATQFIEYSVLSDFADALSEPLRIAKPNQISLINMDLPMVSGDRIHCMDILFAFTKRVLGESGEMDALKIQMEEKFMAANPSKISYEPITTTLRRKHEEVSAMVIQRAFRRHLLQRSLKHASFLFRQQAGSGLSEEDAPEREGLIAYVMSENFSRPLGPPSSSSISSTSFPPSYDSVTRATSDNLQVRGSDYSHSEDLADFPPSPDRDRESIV
# T1 sequence (Q14524 whole entry): as the sequence (Q14524 whole entry, looked up) above
structure (smiles),measurement,setting,value
CCCCCCC[N+](CC)(CC)CCCCc1ccc(Cl)cc1 [clofilium],TdP incidence (animals),"[1]; methoxamine 20 μg/kg/min plus clofilium 300 nmol/kg/min, no pretreatment",7 of 9
same,increase in QTc interval 2.5 minutes after starting clofilium,[1]; methoxamine and clofilium without any pretreatment,20±11%
same,cumulative dose of clofilium at TdP,[1]; [6],1.4 ± 0.2 mg/kg
same,time to TdP after starting clofilium infusion,[1]; [6],7.0 ± 1.3 min
same,time to first PVC after starting clofilium infusion,[1]; [6],3.3 ± 0.5 min
"NC1=N[C@H](O)[C@H]2[C@H]3O[C@]4(O)O[C@@H]([C@@H](O)[C@@]2(N1)[C@@H]4O)[C@]3(O)CO [TTX, tetrodotoxin]",block of unsubtracted Iearly,[2],completely
C=C[C@H]1C[N@@]2CC[C@H]1C[C@@H]2[C@@H](O)c1ccnc2ccc(OC)cc12 [quinidine],increase of APD90,rabbit Purkinje fibers [3]; 10 μM,93%
CCN(CC)CC(=O)Nc1c(C)cccc1C [lidocaine],termination of EADs induced by 300 nM dofetilide,[4],terminated
same,hH1 inhibition with longer prepulses (inactivated state inhibition),hH1 sodium channel,enhanced inhibition
same,block of TTX-sensitive early current Iearly(TTX),[2],41±2.7%
same,block of TTX-sensitive late current Ilate(TTX),[2],73±2.8%
same,block of TTX-sensitive sustained current Isus(TTX),[2],70±2.5%
CN(CCOc1ccc(NS(C)(=O)=O)cc1)CCc1ccc(NS(C)(=O)=O)cc1 [dofetilide],increase in APD90,rabbit Purkinje fibers [5]; [7],92%
same,percentage increase in APD50,rabbit Purkinje fibers [5]; [7],86%
same,Vmax,rabbit Purkinje fibers [5]; dofetilide and DMSO,253±48 V/s
same,increase of APD90,"rabbit Purkinje fibers [3]; 10 nM, BCL=1000 ms",83%
